Data taken from patent publication US20250256007A1, “GELMA POLYMER COMPOSITIONS COMPRISING CELLS” (GelMEDIX, Inc., priority 2022, published 2025).
Like-named read-outs stand apart in the source and are kept apart here.

Tests used:
[1] = Minimum propagator concentration for hydrogel formation; format: physicochemical; details: 1 minute crosslinking at ˜0.43 W
Protocol: (§1) Each of the three propagators (NVC, NVP, EGDA) were combined with G5(80) [5% GelMA, 80% DoM] at 10 uL/mL propagator concentration, and then gelled. Average Young's Modulus (kPa) for resulting hydrogels were as follows: EGDA [7.2494 kPa]; NVP [6.4995 kPa]; NVC [3.4744 kPa]. NVP and EGDA were also tested for a minimum concentration in G5 (10) and G5(80) which would still allow for hydrogel formation (1 minute crosslinking at ˜0.43 W). Minimum propagator concentrations for hydrogel formation were as follows: G5 (10) [NVP—5 uL/mL; EGDA—1.5 uL/mL]; G5 (80) [NVP—0.3 uL/mL; EGDA—0.1 uL/mL]

[2] = Young's Modulus of hydrogels with radical propagators; format: physicochemical; details: propagator at 10 uL/mL in G5(80) [5% GelMA, 80% DoM], gelled
Protocol: as §1

[3] = test system: RPE cells; test: Cytotoxicity studies of propagators with RPE cells
Text: Cytotoxicity studies were also completed with RPE cells for: NVC, NVP, EGDA, and phenylacetyl bromide (BAP), with 10% DMSO as a control.

| Minimum propagator concentration for hydrogel formation ([1]; in G5 (10)) [uL/mL] | Minimum propagator concentration for hydrogel formation ([1]; in G5 (80)) [uL/mL] | Average Young's Modulus [2] [kPa] | Structure (SMILES) | Cell viability (cytotoxicity) [3] | Cell viability (cytotoxicity) ([3]; after 18 hours of cell incubation, RPE cells, FIG. 19) |
| --- | --- | --- | --- | --- | --- |
| 1.5 | 0.1 | 7.2494 | C=CC(=O)OCCOC(=O)C=C [EGDA, Ethylene Glycol Diacrylate] | low cell viability |  |
| 5 | 0.3 | 6.4995 | C=CN1CCCC1=O [NVP, N-Vinylpyrrolidone] | higher average cell viability than NVC |  |
|  |  |  | O=C(Br)Cc1ccccc1 [BAP, phenylacetyl bromide] |  | higher average cell viability than NVC |
|  |  | 3.4744 | C=CN1CCCCCC1=O [NVC, N-vinylcaprolactam] |  |  |
